Data on 80 compounds can be found in a melting point compilation (Tetko et al.).

With `O[C@@H]1CC2=C(CC=CC2)C[C@@H]1O`, the melting point is 139 to 140 °C.

Consider `COc1cc(C(=O)c2ccc(C)cc2)c([N+](=O)[O-])cc1OC`, for which the melting point was 110 °C.

`CCC(O)C1CCCCN1` (stereo not given) came in with a melting point of 121 °C. As for `NC(=O)c1cccnc1Oc1ccc(Cl)cc1`, the figure is 150 to 152 °C. In turn, `CC/C(=N\O)C1=CC2(C)CCC1C2(C)C` (stereo not given) gave a melting point of 107 °C. As for `O=c1c(Cl)c(Cl)cnn1Cc1ccc(Cl)cc1`, the figure is 138 to 139 °C; as for `CC(=O)N[C@@H](Cc1ccccc1)C(=O)O`, 172 °C. As for `COc1ccc(C(c2ccc(OC)cc2)C(Cl)(Cl)Cl)cc1`, the figure is 87 °C.

For the compound `COc1ccc(C=CC(=O)c2ccc(F)cc2)cc1OC`, the melting point was in the range of 88 to 93 °C. With `Oc1ccc(Br)cc1C=NCCN=Cc1cc(Br)ccc1O`, the melting point fell in the range of 191 to 196 °C. As for `NS(=O)(=O)c1ccc(SCCCO)cc1`, the figure is 117 °C; as for `Oc1ccc2c(c1)OCO2`, 63 to 65 °C. Regarding `Cc1cccc(C)c1NC(=O)C1CCCCN1C` (stereo not given), the melting point was 150 °C.

Consider `O=[N+]([O-])c1cncn1CCN1CCOCC1`, for which the melting point was 110 °C. The same measure for `Cc1nc(-c2ccc(C(F)(F)F)cc2)sc1C=O`: 131 to 133 °C; for `CC1=C(C(=O)O)C(c2ccccc2)N(C)C(=O)N1C` (stereo not given): 165 °C; for `C#CC(C)(CC)OC(=O)c1ccccc1C(=O)O` (stereo not given): 97 °C. As for `O=S(=O)(Cl)c1ccc(Cl)cc1Cl`, the figure is 54 °C. As for `Fc1cccc2cc[nH]c12`, the figure is 62 °C; as for `Brc1ccc(-c2nc(-c3ccccc3)c(-c3ccccc3)[nH]2)cc1`, 252 to 260 °C; as for `COc1cc(OC)cc(C(C)=O)c1`, 40 °C.

`CSc1sc(C#N)c2c1C(=O)CC(C)(C)C2` had a melting point of 169 to 171 °C.

On to `NC(=O)c1sc2nnccc2c1N`, for which the melting point was in the range of 310 to 320 °C.

Consider `Cc1cc(CCl)c(C)cc1CCl`, for which the melting point stood at 132 °C. As for `OCc1ccc(-n2ccnc2)cc1`, the figure is 87 to 89 °C. Regarding `CCc1ccccc1Cc1ccccc1`, the melting point was -11 °C. The same measure for `CCN(CC)c1ccc(N=C=S)cc1`: 32 °C; for `Cc1nc(-c2ccccc2)cs1`: 54 °C; for `Nc1ccc(OCCCCCN2C(=O)c3ccccc3C2=O)cc1`: 113 °C. The same measure for `C=CC(=O)Oc1c(Br)cc(Cl)c2cccnc12`: 100 °C; for `O=C1C(=O)c2ccccc2CCc2ccccc21`: 132 °C.

`CC(CO)(NC(=O)c1ccccc1)C(=O)O` (racemic) registered a melting point of 153 to 159 °C. As for `COc1ccc(CO)cc1O`, the figure is 136 °C; as for `BrCc1ccc(-c2csnn2)cc1`, 135 to 137 °C; as for `NN=C(/C(=N/N)c1ccc2ccccc2c1)c1ccccc1`, 163 °C. `COC(=O)C1(S(=O)(=O)c2ccccc2)CCCCC1` gave a melting point of 114 °C. As for `COc1ccc(Br)c([N+](=O)[O-])c1`, the figure is 31 °C; as for `CC(C)CC1CCCCC1`, -95 °C; as for `CCOc1cc(C(C)(C)C)ccc1C1COC(c2c(F)cccc2F)=N1` (stereo not given), 102 °C. The same measure for `O=C(C=Cc1ccc(O)c(O)c1)OC1CC(O)(C(=O)O)CC(O)C1O` (stereo not given): 205 to 209 °C. As for `CCOC(=O)C(Cl)Cc1cc(-n2nc(C)n(C(F)F)c2=O)c(F)cc1Cl` (stereo not given), the figure is -22.1 °C; as for `Cc1oc(-c2ccccc2)nc1C(=O)Cl`, 135 to 136 °C; as for `NC(=O)CCCCC1CCSS1` (stereo not given), 128 °C. Take `ClC1=CC(c2ccccc2)c2ccccc21` (stereo not given): the melting point worked out at 81 °C. As to `COC(=O)c1nc[nH]c1C(=O)OC`, the melting point was in the range of 197 to 201 °C. The same measure for `CSC(S)=Nc1ccc(N)cc1`: 188 to 190 °C; for `O=[N+]([O-])c1ccccc1OCCCBr`: 37 to 38 °C; for `CCCCCCCCCCCCC(C)O` (stereo not given): 34 °C. As for `COC(=O)c1cc(O)ccc1O`, the figure is 87 °C. The same measure for `COc1c(OC)c(OC(C)=O)c2cc(Br)ccc2c1OC(C)=O`: 102 °C; for `CCCCCCCCOC(=O)c1ccccc1C(=O)OCCCCCCCC(C)C`: 98 °C; for `CC(=O)c1csc(-c2ccccc2)n1`: 84 °C.

`Nc1ccc(Cl)c(C(F)(F)F)c1` came in with a melting point of 37 °C. The same measure for `CC(C)NC(=O)CN1CCNCC1`: 82 to 88 °C. The same measure for `O=C1N=NC(=O)c2cc3c(cc21)CCC3`: 310 °C.

For `Cc1cc(O)c(C2CC3CCC2(C)C3(C)C)cc1C` (stereo not given), the melting point came out at 95 °C.

`ClCCOCOCCCl` had a melting point of -32 °C. In turn, `CCCNC(=O)COC(=O)c1ccccc1` gave a melting point of 89.5 °C. In turn, `NNc1ncccc1[N+](=O)[O-]` had a melting point of 165 °C. As for `O=C(NC1CCCCC1)C(Br)(C(F)(F)F)C(F)(F)F`, the figure is 87 °C; as for `CC(C=CC=C(C)C=CC1=C(C)CCCC1(C)C)=CC=CC=C(C)C=CC=C(C)C=CC1=C(C)C(=O)CCC1(C)C`, 179 °C.

In the case of `O=C(O)Cc1ccccc1[N+](=O)[O-]`, the melting point came to 141 °C.

Turning to `Cc1c(-c2ccccc2)[nH]c2ccccc12`, the melting point is 91.5 °C.

On to `CC(C)(C)NCC(O)COc1ccccc1C1CCCC1` (stereo not given), for which the melting point came to 68 °C.

As for `CC(Br)C(=O)O` (stereo not given), the melting point stood at 25 °C. The same measure for `Cc1ccc(CO)cc1F`: 35 °C. The same measure for `Fc1ccc(-c2n[nH]c(=S)n2-n2cccc2)cc1`: 234 °C; for `CC(C)(C)OC(=O)N[C@@H](CC(=O)OCc1ccccc1)C(=O)O`: 111 °C; for `CC(C)(C)c1nc(N)nc(O)n1`: 275 °C. As for `Nc1ccc(I)cc1Cl`, the figure is 73 to 75 °C; as for `O=C(Nc1ccc(Br)cc1)c1cc(Br)ccc1O`, 242 °C; as for `N#CC1=C(N)Oc2c(c(C(F)(F)F)nn2-c2ccccc2)C1c1ccc(F)cc1` (stereo not given), 202 °C. Consider `N#Cn1c(N)nc2ccccc21`, for which the melting point is 175 to 177 °C. The same measure for `CNC(=O)C(=NOC)c1ccccc1Oc1ccccc1`: 88 °C; for `O=C(c1cc2ccccc2o1)c1cc2ccccc2o1`: 174 to 175 °C; for `CCOC(=O)c1ccc(-c2ccccc2)cc1`: 49 °C.

`COc1ccc(/N=N/c2c(N)nn3c(-c4ccccc4)cc(=O)[nH]c23)cc1`: the melting point worked out at 278 °C. As for `CC1(C(=O)O)CCC(C=Cc2ccccc2)C1(C)C` (stereo not given), the figure is 124 °C; as for `COc1cc(C=O)cc([N+](=O)[O-])c1O`, 176 °C; as for `COc1c(OC)c(OC(C)=O)c2c(C#N)cccc2c1OC(C)=O`, 152 °C.

By melting point is commonly meant the temperature of the solid-liquid transition.
